The source of these data is patent US12122761B2, “2-azaspiro[3.4]octane derivatives as M4 agonists” (NOVARTIS AG, priority 2019, dated 2024).

pEC50: −log10 of the molar value.

Experiment [1] concerns the target T1, human cloned CHRM4 receptor (M4_CHO cells) (Homo sapiens, UniProt P08173).
T1 construct: expressed in transfected cells; host or cells: CHO-K1
T1 sequence (P08173 1-479): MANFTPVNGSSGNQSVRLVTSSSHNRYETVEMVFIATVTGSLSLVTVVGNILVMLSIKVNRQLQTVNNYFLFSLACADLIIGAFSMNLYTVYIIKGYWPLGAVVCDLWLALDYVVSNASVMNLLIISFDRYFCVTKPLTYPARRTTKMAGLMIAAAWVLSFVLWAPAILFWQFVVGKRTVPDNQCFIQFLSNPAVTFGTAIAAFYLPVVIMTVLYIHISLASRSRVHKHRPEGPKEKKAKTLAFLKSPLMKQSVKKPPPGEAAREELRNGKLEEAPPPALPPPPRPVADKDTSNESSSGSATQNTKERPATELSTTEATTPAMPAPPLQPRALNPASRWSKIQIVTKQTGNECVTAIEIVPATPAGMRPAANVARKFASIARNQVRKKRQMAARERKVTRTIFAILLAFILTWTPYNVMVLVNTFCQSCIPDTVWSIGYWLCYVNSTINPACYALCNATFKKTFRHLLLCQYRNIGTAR
Put plainly: CHRM4 Ca++ Flux Assay (agonist mode, FDSS 7000EX). The format is cell-based. As to conditions: for M4 FDSS PA: Percent Activity; for pEC50: geometric mean if tested more than once, read-out: M4 FDSS EC50. The essentials:
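M4_CHO cells loaded with a Ca++ dye for at least 1 h were held 60 min at room temperature in HEPES/probenecid buffer with 20 μM ATP. Ca++ flux after an 11-point compound dose, in triplicate and agonist mode, was recorded over 3 min. Four-parameter fits gave curves, with activity expressed relative to the Carbachol EC100.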

The target in experiment [2] is T2, human cloned CHRM5 receptor (M5_CHO) (Homo sapiens, UniProt P08912).
T2 construct: expressed in transfected cells; host or cells: CHO (M5_CHO)
T2 sequence (P08912 1-532): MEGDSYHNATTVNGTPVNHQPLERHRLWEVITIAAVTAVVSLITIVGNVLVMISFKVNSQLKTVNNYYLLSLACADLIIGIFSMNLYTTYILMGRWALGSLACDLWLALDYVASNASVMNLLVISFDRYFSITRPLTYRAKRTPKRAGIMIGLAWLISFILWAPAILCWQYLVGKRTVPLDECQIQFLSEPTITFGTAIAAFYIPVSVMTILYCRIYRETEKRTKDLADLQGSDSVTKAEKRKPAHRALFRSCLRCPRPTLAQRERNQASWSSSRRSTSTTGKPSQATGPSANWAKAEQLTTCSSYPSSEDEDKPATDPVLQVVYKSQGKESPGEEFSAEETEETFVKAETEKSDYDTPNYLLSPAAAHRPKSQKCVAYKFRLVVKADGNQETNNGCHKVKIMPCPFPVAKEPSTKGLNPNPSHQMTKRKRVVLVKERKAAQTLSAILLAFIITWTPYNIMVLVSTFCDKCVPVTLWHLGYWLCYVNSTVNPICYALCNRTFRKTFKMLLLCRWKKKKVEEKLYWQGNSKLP
Put plainly: CHRM5 Ca++ Flux Assay (agonist mode, FDSS 7000EX). It counts as cell-based. Particulars: for M5 FDSS PA: Percent Activity measured to EC100 of Carbachol; for pEC50: agonist mode, geometric mean if tested more than once, read-out: M5 FDSS EC50. The method in brief:
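Agonist-mode calcium flux: 11-point dose responses, triplicate wells, fluorescence followed for 3 minutes. Cells are M3_CHO or M5_CHO lines (human receptors) with Ca++ indicator in probenecid-containing HEPES/HBSS buffer. Percent activity is referenced to carbachol EC100, and curves come from four-parameter nonlinear regression.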

One may read the pEC50 as the EC50 on a negative log10 scale, so that one unit is a factor of ten. Regarding `Fc1cncc(N2CC3(CC[C@@H](N4CCC(c5cc(F)ccc5OC5CCOCC5)CC4)C3)C2)c1` (single isomer, unassigned) [Example 10A, (R)-6-(4-(5-fluoro-2-((tetrahydro-2H-pyran-4-yl)oxy)phenyl)piperidin-1-yl)-2-(5-fluoropyridin-3-yl)-2-azaspiro[3.4]octane or (S)-6-(4-(5-fluoro-2-((tetrahydro-2H-pyran-4-yl)oxy)phenyl)piperidin-1-yl)-2-(5-fluoropyridin-3-yl)-2-azaspiro[3.4]octane], in experiment [1], the “M4 FDSS PA” value is given as 60% and the pEC50 was 8.30. For the same compound, in experiment [2], the “M5 FDSS PA” value amounted to 0% and the negative-log EC50 (pEC50) is less than 4.60.

As to `Fc1cncc(N2CC3(CC[C@@H](N4CCC(c5cc(F)ccc5OC5CCOCC5)CC4)C3)C2)c1` (single isomer, unassigned) [Example 10B, (R)-6-(4-(5-fluoro-2-((tetrahydro-2H-pyran-4-yl)oxy)phenyl)piperidin-1-yl)-2-(5-fluoropyridin-3-yl)-2-azaspiro[3.4]octane or (S)-6-(4-(5-fluoro-2-((tetrahydro-2H-pyran-4-yl)oxy)phenyl)piperidin-1-yl)-2-(5-fluoropyridin-3-yl)-2-azaspiro[3.4]octane], in experiment [1], the “M4 FDSS PA” value is 41% and the pEC50 was 7.35. Moreover, in experiment [2], the “M5 FDSS PA” value was 0% and the pEC50 was less than 4.60.

As for `Fc1ccc(C2CCOCC2)c(C2CCN([C@@H]3CCC4(C3)CN(c3cncnc3)C4)CC2)c1` (single isomer, unassigned) [Example 10C, (R)-6-(4-(5-fluoro-2-(tetrahydro-2H-pyran-4-yl)phenyl)piperidin-1-yl)-2-(pyrimidin-5-yl)-2-azaspiro[3.4]octane or (S)-6-(4-(5-fluoro-2-(tetrahydro-2H-pyran-4-yl)phenyl)piperidin-1-yl)-2-(pyrimidin-5-yl)-2-azaspiro[3.4]octane], in experiment [1], the “M4 FDSS PA” value was found to be 62% and the pEC50 is greater than 9.40. For the same compound, in experiment [2], the “M5 FDSS PA” value worked out at 0% and the pEC50 was less than 4.60.

In the case of `Fc1ccc(C2CCOCC2)c(C2CCN([C@@H]3CCC4(C3)CN(c3cncnc3)C4)CC2)c1` (single isomer, unassigned) [Example 10D, (R)-6-(4-(5-fluoro-2-(tetrahydro-2H-pyran-4-yl)phenyl)piperidin-1-yl)-2-(pyrimidin-5-yl)-2-azaspiro[3.4]octane or (S)-6-(4-(5-fluoro-2-(tetrahydro-2H-pyran-4-yl)phenyl)piperidin-1-yl)-2-(pyrimidin-5-yl)-2-azaspiro[3.4]octane], in experiment [1], the “M4 FDSS PA” value is given as 50% and the pEC50 was 7.60. Besides, in experiment [2], the “M5 FDSS PA” value amounted to 0% and the pEC50 is less than 4.60.

On to `Fc1ccc(OC2CC3(COC3)C2)c(C2CCN([C@@H]3CCC4(C3)CN(c3cncnc3)C4)CC2)c1` (single isomer, unassigned) [Example 10E, (R)-6-(4-(2-((2-oxaspiro[3.3]heptan-6-yl)oxy)-5-fluorophenyl)piperidin-1-yl)-2-(pyrimidin-5-yl)-2-azaspiro[3.4]octane or (S)-6-(4-(2-((2-oxaspiro[3.3]heptan-6-yl)oxy)-5-fluorophenyl)piperidin-1-yl)-2-(pyrimidin-5-yl)-2-azaspiro[3.4]octane], for which, in experiment [1], the “M4 FDSS PA” value turned out to be 59% and the negative logarithm of the EC50 (pEC50) was 7.57. In experiment [2], the “M5 FDSS PA” value was 0% and the pEC50 is less than 4.60.

For `Fc1ccc(OC2CC3(COC3)C2)c(C2CCN([C@@H]3CCC4(C3)CN(c3cncnc3)C4)CC2)c1` (single isomer, unassigned) [Example 10F, (R)-6-(4-(2-((2-oxaspiro[3.3]heptan-6-yl)oxy)-5-fluorophenyl)piperidin-1-yl)-2-(pyrimidin-5-yl)-2-azaspiro[3.4]octane or (S)-6-(4-(2-((2-oxaspiro[3.3]heptan-6-yl)oxy)-5-fluorophenyl)piperidin-1-yl)-2-(pyrimidin-5-yl)-2-azaspiro[3.4]octane], in experiment [1], the “M4 FDSS PA” value amounted to 71% and the pEC50 is 8.33. Also, in experiment [2], the “M5 FDSS PA” value came to 0% and the pEC50 is less than 4.60.

For the compound `Fc1ccc(OC2CCOCC2)c(C2CCN([C@@H]3CCC4(C3)CN(c3cncnc3)C4)CC2)c1` (single isomer, unassigned) [Example 10G, (R)-6-(4-(5-fluoro-2-((tetrahydro-2H-pyran-4-yl)oxy)phenyl)piperidin-1-yl)-2-(pyrimidin-5-yl)-2-azaspiro[3.4]octane or (S)-6-(4-(5-fluoro-2-((tetrahydro-2H-pyran-4-yl)oxy)phenyl)piperidin-1-yl)-2-(pyrimidin-5-yl)-2-azaspiro[3.4]octane], in experiment [1], the “M4 FDSS PA” value turned out to be 56% and the pEC50 is 8.30. Further, in experiment [2], the “M5 FDSS PA” value is reported as 0% and the negative logarithm of the EC50 (pEC50) was less than 4.60.

For `Fc1ccc(OC2CCOCC2)c(C2CCN([C@@H]3CCC4(C3)CN(c3cncnc3)C4)CC2)c1` (single isomer, unassigned) [Example 10H, (R)-6-(4-(5-fluoro-2-((tetrahydro-2H-pyran-4-yl)oxy)phenyl)piperidin-1-yl)-2-(pyrimidin-5-yl)-2-azaspiro[3.4]octane or (S)-6-(4-(5-fluoro-2-((tetrahydro-2H-pyran-4-yl)oxy)phenyl)piperidin-1-yl)-2-(pyrimidin-5-yl)-2-azaspiro[3.4]octane], in experiment [1], the “M4 FDSS PA” value is 51% and the pEC50 is 7.72. In addition, in experiment [2], the “M5 FDSS PA” value is on record as 0% and the pEC50 is less than 4.60.

Take `COc1ccccc1C1CCN([C@H]2CCC3(C2)CN(c2ncco2)C3)CC1` (single isomer, unassigned) [Example 10I, S)-2-(6-(4-(2-methoxyphenyl)piperidin-1-yl)-2-azaspiro[3.4]octan-2-yl)oxazole or (R)-2-(6-(4-(2-methoxyphenyl)piperidin-1-yl)-2-azaspiro[3.4]octan-2-yl)oxazole]: in experiment [1], the “M4 FDSS PA” value is reported as 17% and the pEC50 is 5.97. In experiment [2], the “M5 FDSS PA” value was found to be 0% and the pEC50 is less than 4.60.

Consider `COc1ccccc1C1CCN([C@H]2CCC3(C2)CN(c2ncco2)C3)CC1` (single isomer, unassigned) [Example 10J, (S)-2-(6-(4-(2-methoxyphenyl)piperidin-1-yl)-2-azaspiro[3.4]octan-2-yl)oxazole or (R)-2-(6-(4-(2-methoxyphenyl)piperidin-1-yl)-2-azaspiro[3.4]octan-2-yl)oxazole], for which, in experiment [1], the “M4 FDSS PA” value is 67% and the negative-log EC50 (pEC50) is 9.00. For the same compound, in experiment [2], the “M5 FDSS PA” value is 0% and the pEC50 was 4.85.

Take `FC(F)(F)Oc1ccccc1C1CCN([C@@H]2CCC3(C2)CN(c2ncco2)C3)CC1` (single isomer, unassigned) [Example 10K, (R)-2-(6-(4-(2-(trifluoromethoxy)phenyl)piperidin-1-yl)-2-azaspiro[3.4]octan-2-yl)oxazole or (S)-2-(6-(4-(2-(trifluoromethoxy)phenyl)piperidin-1-yl)-2-azaspiro[3.4]octan-2-yl)oxazole]: in experiment [1], the “M4 FDSS PA” value turned out to be 65% and the pEC50 was 8.15. Also, in experiment [2], the “M5 FDSS PA” value amounted to 0% and the pEC50 was less than 4.60.

As for `FC(F)(F)Oc1ccccc1C1CCN([C@@H]2CCC3(C2)CN(c2ncco2)C3)CC1` (single isomer, unassigned) [Example 10L, (R)-2-(6-(4-(2-(trifluoromethoxy)phenyl)piperidin-1-yl)-2-azaspiro[3.4]octan-2-yl)oxazole or (S)-2-(6-(4-(2-(trifluoromethoxy)phenyl)piperidin-1-yl)-2-azaspiro[3.4]octan-2-yl)oxazole], in experiment [1], the “M4 FDSS PA” value is 57% and the pEC50 is 7.01. Also, in experiment [2], the “M5 FDSS PA” value stood at 2% and the pEC50 was less than 4.60.
